US8324186B2, “4-azetidinyl-1-heteroatom linked-cyclohexane antagonists of CCR2” (Janssen Pharmaceutica N.V., priority 2009, dated 2012)
pIC50: −log10 of the molar value.

Target: T1, CCR2 (Homo sapiens, UniProt P41597)
T1 construct: host or cells: THP-1 human monocytic cells
Assay: MCP-1 Receptor Binding Assay in THP-1 Cells (125I-MCP-1 displacement)
Details: 0.5 nM 125I labeled MCP-1, 2 hours at 30° C., read-out: CCR2 Binding, Inhibition of MCP-1 Binding IC50
Experimental: Compounds of the invention were subjected to various representative biological tests. The results of these tests are intended to illustrate the invention in a non-limiting fashion. MCP-1 Receptor Binding Assay in THP-1 Cells
Human monocytic cell line THP-1 cells were obtained from American Type Culture Collection (Manassas, Va., USA). The THP-1 cells were grown in RPMI-1640 (RPMI: Roswell Park Memorial Institute Medium-cell culture growth media) supplemented with 10% fetal bovine serum in a humidified 5% CO2 atmosphere at 37° C. The cell density was maintained […].
THP-1 (cells were incubated with 0.5 nM ^125I labeled MCP-1 (Perkin-Elmer Life Sciences, Inc. Boston, Mass.) in the presence of varying concentrations of either unlabeled MCP-1 (R & D Systems, Minneapolis, Minn.) or test compound for 2 hours at 30° C. in a 96 well plate. Cells were then harvested onto a filter plate, dried, and 20 μL of Microscint 20 was added to each well. Plates were counted in a TopCount NXT, Microplate Scintillation & Luminescence Counter (Perkin-Elmer Life Sciences, Inc. Boston, Mass.). Blank values (buffer only) were subtracted from all values and drug treated values were compared to vehicle treated values. 1 μM cold MCP-1 was used for nonspecific binding.
Table 1 lists IC50 values for inhibition of MCP-1 binding to CCR2 obtained for test compounds of the invention. Where an IC50 value was not obtained for a particular compound, the percent inhibition is provided at a test concentration of 25 μM.

T1 sequence (P41597 whole entry): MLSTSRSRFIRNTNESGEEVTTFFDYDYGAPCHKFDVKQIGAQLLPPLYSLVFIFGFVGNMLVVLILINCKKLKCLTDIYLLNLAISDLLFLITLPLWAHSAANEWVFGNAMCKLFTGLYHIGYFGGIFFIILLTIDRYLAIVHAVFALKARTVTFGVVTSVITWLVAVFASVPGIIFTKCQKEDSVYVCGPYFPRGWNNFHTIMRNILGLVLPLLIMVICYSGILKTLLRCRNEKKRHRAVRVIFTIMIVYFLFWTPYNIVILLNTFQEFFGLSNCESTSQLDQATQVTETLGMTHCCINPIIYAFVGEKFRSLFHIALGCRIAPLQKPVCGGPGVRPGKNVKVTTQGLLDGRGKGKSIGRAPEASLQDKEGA

pIC50	Compound
5.82	O=C(CNC(=O)c1cccc(C(F)(F)F)c1)NC1CN(C2CCC(NC(=O)Nc3ccc4c(c3)OCO4)CC2)C1 (stereo not shown) [Example 36, N-({1-[4-(3-Benzo[1,3]dioxol-5-yl-ureido)-cyclohexyl]-azetidin-3-ylcarbamoyl}-methyl)-3-trifluoromethyl-benzamide]
7.00	COc1cccn(C2CCC(N3CC(NC(=O)CNC(=O)c4cccc(C(F)(F)F)c4)C3)CC2)c1=O (single isomer, unassigned) [Example 13a, N-({1-[4-(3-Methoxy-2-oxo-2H-pyridin-1-yl)-cyclohexyl]-azetidin-3-ylcarbamoyl}-methyl)-3-trifluoromethyl-benzamide]
7.10	O=C(CNC(=O)c1cccc(C(F)(F)F)c1)NC1CN(C2CCC3(CC2)OCc2ccccc23)C1 (single isomer, unassigned) [Example 41a, N-[(1-3′H-Spiro[cyclohex-1,1′-isobenzofuran]-4-yl-azetidin-3-ylcarbamoyl)-methyl]-3-trifluoromethyl-benzamide]
6.39	O=C(CNC(=O)c1cccc(C(F)(F)F)c1)NC1CN(C2CCC(Oc3cccnn3)CC2)C1 (stereo not shown) [Example 23, N-({1-[4-(Pyridazin-3-yloxy)-cyclohexyl]-azetidin-3-ylcarbamoyl}-methyl)-3-trifluoromethyl-benzamide]
6.55	Cc1ccc(=O)n(C2CCC(N3CC(NC(=O)CNC(=O)c4cccc(C(F)(F)F)c4)C3)CC2)c1 (stereo not shown) [Example 11, N-({1-[4-(5-Methyl-2-oxo-2H-pyridin-1-yl)-cyclohexyl]-azetidin-3-ylcarbamoyl}-methyl)-3-trifluoromethyl-benzamide]
5.96	O=C(CNC(=O)c1cccc(C(F)(F)F)c1)NC1CN(C2CCC(n3cc(Cl)ccc3=O)CC2)C1 (single isomer, unassigned) [Example 22a, N-({1-[4-(2-Oxo-5-chloro-2H-pyridin-1-yl)-cyclohexyl]-azetidin-3-ylcarbamoyl}-methyl)-3-trifluoromethyl-benzamide]
6.96	Cc1ccn(C2CCC(N3CC(NC(=O)CNC(=O)c4cccc(C(F)(F)F)c4)C3)CC2)c(=O)c1 (stereo not shown) [Example 20, N-({1-[4-(4-Methyl-2-oxo-2H-pyridin-1-yl)-cyclohexyl]-azetidin-3-ylcarbamoyl}-methyl)-3-trifluoromethyl-benzamide]
7.06	C#Cc1cnn(C2CCC(N3CC(NC(=O)CNC(=O)c4cccc(C(F)(F)F)c4)C3)CC2)c1 (single isomer, unassigned) [Example 30a, N-({1-[4-(4-Ethynyl-pyrazol-1-yl)-cyclohexyl]-azetidin-3-ylcarbamoyl}-methyl)-3-trifluoromethyl-benzamide]
6.04	O=C(CNC(=O)c1cccc(C(F)(F)F)c1)NC1CN(C2CCC3(CC2)OC(=O)c2ccccc23)C1 (single isomer, unassigned) [Example 38a]
6.47	O=C(CNC(=O)c1cccc(C(F)(F)F)c1)NC1CN(C2CCC(n3ccnc3)CC2)C1 (single isomer, unassigned) [Example 31a, N-{[1-(4-Imidazol-1-yl-cyclohexyl)-azetidin-3-ylcarbamoyl]-methyl}-3-trifluoromethyl-benzamide]
6.47	O=C(CNC(=O)c1cccc(C(F)(F)F)c1)NC1CN(C2CCC(Oc3noc4ccccc34)CC2)C1 (single isomer, unassigned) [Example 25a, N-({1-[4-(Benzo[d]isoxazol-3-yloxy)-cyclohexyl]azetidin-3-ylcarbamoyl}-methyl)-3-trifluoromethyl-benzamide]
6.54	O=C(CNC(=O)c1cccc(C(F)(F)F)c1)NC1CN(C2CCC(Oc3nsc4ccccc34)CC2)C1 (single isomer, unassigned) [Example 34a, N-({1-[4-(Benzo[d]isothiazol-3-yloxy)-cyclohexyl]-azetidin-3-ylcarbamoyl}-methyl)-3-trifluoromethyl-benzamide]
6.17	O=C(CNC(=O)c1cccc(C(F)(F)F)c1)NC1CN(C2CCC(N3C(=O)c4ccccc4C3=O)CC2)C1 (single isomer, unassigned) [Example 24a, N-({1-[4-(1,3-Dioxo-1,3-dihydro-isoindol-2-yl)-cyclohexyl]-azetidin-3-ylcarbamoyl}-methyl)-3-trifluoromethyl-benzamide]
5.27	O=C(CNC(=O)c1cccc(C(F)(F)F)c1)NC1CN(C2CCC(n3ccc(O)cc3=O)CC2)C1 (single isomer, unassigned) [Example 15a, N-({1-[4-(4-Hydroxy-2-oxo-2H-pyridin-1-yl)-cyclohexyl]-azetidin-3-ylcarbamoyl}-methyl)-3-trifluoromethyl-benzamide]
5.19	O=C(CNC(=O)c1cccc(C(F)(F)F)c1)NC1CN(C2CCC(n3cc(C(F)(F)F)ccc3=O)CC2)C1 (single isomer, unassigned) [Example 21a, N-({1-[4-(2-Oxo-5-trifluoromethyl-2H-pyridin-1-yl)-cyclohexyl]-azetidin-3-ylcarbamoyl}-methyl)-3-trifluoromethyl-benzamide]
5.66	O=C(CNC(=O)c1cccc(C(F)(F)F)c1)NC1CN(C2CCC(n3cc(Br)cnc3=O)CC2)C1 (stereo not shown) [Example 3, N-({1-[4-(5-Bromo-2-oxo-2H-pyrimidin-1-yl)-cyclohexyl]-azetidin-3-ylcarbamoyl}-methyl)-3-trifluoromethyl-benzamide]
5.05	Cc1ccc(C)n1C1CCC(N2CC(NC(=O)CNC(=O)c3cccc(C(F)(F)F)c3)C2)CC1 (stereo not shown) [Example 37, N-({1-[4-(2,5-Dimethyl-pyrrol-1-yl)-cyclohexyl]-azetidin-3-ylcarbamoyl}-methyl)-3-trifluoromethyl-benzamide]
5.23	O=C(CNC(=O)c1cccc(C(F)(F)F)c1)NC1CN(C2CCC(n3cccnc3=O)CC2)C1 (stereo not shown) [Example 4, N-({1-[4-(2-Oxo-2H-pyrimidin-1-yl)-cyclohexyl]-azetidin-3-ylcarbamoyl}-methyl)-3-trifluoromethyl-benzamide]
6.39	O=C(CNC(=O)c1cccc(C(F)(F)F)c1)NC1CN(C2CCC(Oc3ccc4c(c3)OCO4)CC2)C1 (stereo not shown) [Example 33, N-({1-[4-(Benzo[1,3]dioxol-5-yloxy)-cyclohexyl]-azetidin-3-ylcarbamoyl}-methyl)-3-trifluoromethyl-benzamide]
5.57	O=C(CNC(=O)c1cccc(C(F)(F)F)c1)NC1CN(C2CCC(Oc3ccncn3)CC2)C1 (single isomer, unassigned) [Example 7a, N-({1-[4-(Pyrimidin-4-yloxy)-cyclohexyl]-azetidin-3-ylcarbamoyl}-methyl)-3-trifluoromethyl-benzamide]
7.18	Cc1ccnc(OC2CCC(N3CC(NC(=O)CNC(=O)c4cccc(C(F)(F)F)c4)C3)CC2)c1 (stereo not shown) [Example 19, N-({1-[4-(4-Methyl-pyridin-2-yloxy)-cyclohexyl]-azetidin-3-ylcarbamoyl}-methyl)-3-trifluoromethyl-benzamide]
6.48	Cc1cccn(C2CCC(N3CC(NC(=O)CNC(=O)c4cccc(C(F)(F)F)c4)C3)CC2)c1=O (single isomer, unassigned) [Example 18a, N-({1-[4-(3-Methyl-2-oxo-2H-pyridin-1-yl)-cyclohexyl]-azetidin-3-ylcarbamoyl}-methyl)-3-trifluoromethyl-benzamide]
6.42	O=C(CNC(=O)c1cccc(C(F)(F)F)c1)NC1CN(C2CCC(n3cnccc3=O)CC2)C1 (single isomer, unassigned) [Example 6a, N-({1-[4-(6-Oxo-6H-pyrimidin-1-yl)-cyclohexyl]-azetidin-3-ylcarbamoyl}-methyl)-3-trifluoromethyl-benzamide]
6.37	O=C(CNC(=O)c1cccc(C(F)(F)F)c1)NC1CN(C2CCC(NC(=O)c3ccc4c(c3)OCO4)CC2)C1 (stereo not shown) [Example 35, Benzo[1,3]dioxole-5-carboxylic acid (4-{3-[2-(3-trifluoromethyl-benzoylamino)-acetylamino]-azetidin-1-yl}-cyclohexyl)-amide]
6.09	Cc1ccc(OC2CCC(N3CC(NC(=O)CNC(=O)c4cccc(C(F)(F)F)c4)C3)CC2)nc1 (single isomer, unassigned) [Example 12a, N-({1-[4-(5-Methyl-pyridin-2-yloxy)-cyclohexyl]-azetidin-3-ylcarbamoyl}-methyl)-3-trifluoromethyl-benzamide]
6.89	O=C(CNC(=O)c1cccc(C(F)(F)F)c1)NC1CN(C2CCC(n3ccccc3=O)CC2)C1 (single isomer, unassigned) [Example 1a, N-({1-[4-(2-Oxo-2H-pyridin-1-yl)-cyclohexyl]-azetidin-3-ylcarbamoyl}-methyl)-3-trifluoromethyl-benzamide]
6.00	N#Cc1ccc(=O)n(C2CCC(N3CC(NC(=O)CNC(=O)c4cccc(C(F)(F)F)c4)C3)CC2)c1 (stereo not shown) [Example 10, N-({1-[4-(5-Cyano-2-oxo-2H-pyridin-1-yl)-cyclohexyl]-azetidin-3-ylcarbamoyl}-methyl)-3-trifluoromethyl-benzamide]

Compound	pIC50
C[Si](C)(C)C#Cc1cnn(C2CCC(N3CC(NC(=O)CNC(=O)c4cccc(C(F)(F)F)c4)C3)CC2)c1 (single isomer, unassigned) [Example 29a, 3-Trifluoromethyl-N-({1-[4-(4-trimethylsilanylethynyl-pyrazol-1-yl)-cyclohexyl]-azetidin-3-ylcarbamoyl}-methyl)-benzamide]	7.68
